Results: article PMC11882969 (Nature Communications, 2025)
Where “and” joins values, the source holds several entries; their conditions need not be identical. Equal values may be shown once. Marks after values point to notes of the source that are not given here.

Target: hCB1 (Homo sapiens, UniProt P21554)
Experiment: bioSensAll ebBRET signaling profiling, hCB1
Assay type: cell-based
Set-up: host or cells: HEK293SL cells, transient PEI transfection

Sequence of hCB1 (P21554 whole entry): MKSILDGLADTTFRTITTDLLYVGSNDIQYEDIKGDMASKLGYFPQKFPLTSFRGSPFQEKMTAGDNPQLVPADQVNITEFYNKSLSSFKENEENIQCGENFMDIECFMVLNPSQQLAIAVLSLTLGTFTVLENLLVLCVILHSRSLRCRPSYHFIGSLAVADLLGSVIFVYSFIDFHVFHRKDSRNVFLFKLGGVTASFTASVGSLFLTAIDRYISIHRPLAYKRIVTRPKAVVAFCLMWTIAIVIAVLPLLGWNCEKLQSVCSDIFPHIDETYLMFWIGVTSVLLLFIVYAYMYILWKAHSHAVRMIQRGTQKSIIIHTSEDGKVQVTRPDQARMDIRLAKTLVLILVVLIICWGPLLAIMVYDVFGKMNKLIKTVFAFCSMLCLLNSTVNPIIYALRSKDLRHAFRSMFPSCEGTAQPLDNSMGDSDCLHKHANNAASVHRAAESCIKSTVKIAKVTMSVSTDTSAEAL

## COC(=O)[C@@](C)(NC(=O)c1cc(C)n(-c2cccc(C(F)(F)F)c2)n1)c1cccs1 [‘1350]
CB1R, Gi/o and G13 subtypes
  fold more relatively efficacious than CP-55,940: approximately 2 fold
Log [Compound] (M) -4.22186
  Barr2+GRK2 hCB1: 125.5* and 120.6* and 91.27*
  G13 hCB1: 69.1809 and 43.3855
  G15 hCB1: 108.417 and 97.817
  Gi1 hCB1: 103.518 and 79.8531 and 99.2855
  Gi2 hCB1: 106.254 and 114.578
  GoB hCB1: 102.685 and 99.7877 and 104.661
  Gq hCB1: 1156
  Gs hCB1: 6234
  Gz hCB1: 98.9486
Log [Compound] (M) -4.63927
  Barr2+GRK2 hCB1: 67.7543 and 59.6502 and 97.3886
  G15 hCB1: 104.285 and 89.1373
  Gi1 hCB1: 100.256 and 80.2965 and 97.3658
  Gi2 hCB1: 112.478 and 82.217
  GoB hCB1: 94.4304 and 95.2911 and 109.92
  Gq hCB1: 1096
  Gs hCB1: 6120
  Gz hCB1: 94.4339
Log [Compound] (M) -5.05788
  G15 hCB1: 99.6047 and 93.8454
  Gi1 hCB1: 101.042 and 84.715 and 96.0704
  Gi2 hCB1: 100.013 and 77.0501
  GoB hCB1: 90.3283 and 96.4543
  Gq hCB1: 1019
  Gs hCB1: 6223
  Gz hCB1: 91.6266
Log [Compound] (M) -5.47381
  G15 hCB1: 92.6315 and 93.0563
  Gi1 hCB1: 98.0616 and 86.5046 and 101.002
  Gi2 hCB1: 109.888 and 85.6163
  GoB hCB1: 95.0781 and 98.6071
  Gq hCB1: 1081
  Gs hCB1: 6070
  Gz hCB1: 90.4534
Log [Compound] (M) -5.89285
  Barr2+GRK2 hCB1: 49.9477 and 47.2064 and 86.5049
  G15 hCB1: 99.748 and 91.636
  Gi1 hCB1: 97.1719 and 80.8667 and 101.065
  Gi2 hCB1: 102.458 and 76.0168
  GoB hCB1: 92.8683 and 94.9439 and 107.071
  Gq hCB1: 1042
  Gs hCB1: 6370
  Gz hCB1: 91.8989
Log [Compound] (M) -6.31878
  G15 hCB1: 101.969 and 92.5566
  Gi1 hCB1: 107.685 and 74.7378 and 104.951
  Gi2 hCB1: 103.614 and 79.7423
  GoB hCB1: 90.0362 and 98.2252 and 101.933
  Gq hCB1: 1039
  Gs hCB1: 6417
  Gz hCB1: 93.1455
Log [Compound] (M) -6.72585
  G15 hCB1: 105.885 and 89.0321
  Gi1 hCB1: 94.74 and 76.8441 and 99.3323
  Gi2 hCB1: 103.093 and 82.0131
  GoB hCB1: 94.0367 and 93.8848 and 98.7347
  Gq hCB1: 1115
  Gs hCB1: 6298
  Gz hCB1: 84.3779
Log [Compound] (M) -7.14267
  G15 hCB1: 103.856 and 93.4508
  Gi1 hCB1: 91.7446 and 70.6519 and 99.504
  Gi2 hCB1: 99.8505 and 80.4086
  GoB hCB1: 91.8523 and 88.9368 and 103.009
  Gq hCB1: 1002
  Gs hCB1: 6288
  Gz hCB1: 87.489 and 99.2286
Log [Compound] (M) -7.55284
  Barr2+GRK2 hCB1: 47.1448 and 43.6966 and 56.3415
  G15 hCB1: 99.9152 and 95.5813
  Gi1 hCB1: 97.765 and 74.1201 and 97.5531
  Gi2 hCB1: 96.1681 and 79.7288
  GoB hCB1: 92.1444 and 89.4924 and 88.6102
  Gq hCB1: 1106
  Gs hCB1: 6295
  Gz hCB1: 88.7355 and 97.954
Log [Compound] (M) -8
  G13 hCB1: 59.5674 and 29.7847
  G15 hCB1: 98.7928 and 95.555
  Gi1 hCB1: 85.5759 and 80.7558 and 94.7595
  Gi2 hCB1: 103.924 and 86.4729
  GoB hCB1: 93.1096 and 93.0515 and 90.8837
  Gq hCB1: 998
  Gs hCB1: 6325
  Gz hCB1: 81.7172 and 92.9121
Log [Compound] (M) -8.22186
  Barr2+GRK2 hCB1: 55.5534 and 36.0388 and 57.0671
  G13 hCB1: 68.4414 and 35.9312
  G15 hCB1: 108.751 and 98.1326
  Gi1 hCB1: 92.6788 and 89.3236 and 99.6444
  Gi2 hCB1: 103.598 and 95.5013
  GoB hCB1: 98.7737 and 93.6765
  Gq hCB1: 1076
  Gs hCB1: 6277
  Gz hCB1: 86.1167 and 125.84
Log [Compound] (M) -8.39794
  Barr2+GRK2 hCB1: 29.9976 and 37.6342 and 37.3728
  G15 hCB1: 102.447 and 90.505
  Gi1 hCB1: 89.9355 and 81.3893 and 90.8265
  Gi2 hCB1: 93.2678 and 81.238
